According to patent US20220387604A1, “SELECTIVE DUAL HISTONE DEACETYLASE 6/8 (HDAC6/8) DEGRADERS AND METHODS OF USE THEREOF” (DANA-FARBER CANCER INSTITUTE, INC., priority 2019, published 2022):

What was measured:
[1] = system: HDAC6/8; test: Quantitative proteomics of cellular protein abundance in Kelly cells: HDAC6/8; assay type: cell-based, human; details: for change of cellular HDAC6/8 protein levels (heat map FIG. 3): 1 μM, 5 hours, compared to DMSO control; for reduction in HDAC6/8 protein levels compared to DMSO treated cells: moderated t-test, scatter plots FIG. 2A-2C, 4A-4B
Protocol: Lysis buffer (8 M Urea, 50 mM NaCl, 50 mM 4-(2hydroxyethyl)-1-piperazineethanesulfonic acid (EPPS) pH 8.5, protease and phosphatase inhibitors from Roche®) were added to the cell pellets and homogenized by 20 passes through a 21 gauge (1.25 in. long) needle to achieve a cell lysate with a protein concentration between 1-4 mg mL^−1. A micro-BCA assay (Pierce™) was used to determine the final protein concentration in the cell lysate. 200 μg of protein for each sample were reduced and alkylated as described in Donovan et al., Elife 7:e38430 (2018).
Proteins were precipitated using methanol/chloroform. Four volumes of methanol were added to the cell lysate, followed by one volume of chloroform, and finally three volumes of water. The mixture was vortexed and centrifuged to separate the chloroform phase from the aqueous phase. The precipitated protein was washed with three volumes of methanol, centrifuged and the resulting washed precipitated protein was allowed to air dry. The precipitated protein was resuspended in 4 M Urea, 50 mM HEPES pH 7.4, followed by dilution to 1 M urea with the addition of 200 mM EPPS, pH 8. Proteins were first digested with LysC (1:50; enzyme:protein) for 12 hours at room temperature. The LysC digestion was diluted to 0.5 M Urea with 200 mM EPPS pH 8 followed by digestion with trypsin (1:50; enzyme:protein) for 6 hours at 37° C. Tandem mass tag (TMT) reagents (Thermo Fisher Scientific) were dissolved in anhydrous acetonitrile (ACN) according to manufacturer's instructions.
Anhydrous ACN was added to each peptide sample to a final concentration of 30% v/v, and labeling was induced with the addition of TMT reagent to each sample at a ratio of 1:4 peptide:TMT label. The 10-plex labeling reactions were performed for 1.5 hours at room temperature and the reaction quenched by the addition of hydroxylamine to a final concentration of 0.3% for 15 minutes at room temperature. The sample channels were combined at a 1:1:1:1:1:1:1:1:1:1:1 ratio, desalted using C18 solid phase extraction cartridges (Waters®) and analyzed by LC-MS for channel ratio comparison. Samples were then combined using the adjusted volumes determined in the channel ratio analysis and dried down in a speed vacuum. The combined sample was then resuspended in 1% formic acid, and acidified (pH 2-3) before being subjected to desalting with C18 SPE (Sep-Pak®, Waters®). Samples were then offline fractionated into 96 fractions by high pH reverse-phase HPLC (Agilent® LC1260) through an aeris peptide xb-c18 column (Phenomenex®) with mobile phase A containing 5% acetonitrile and 10 mM NH4HCO3 in LC-MS grade H2O, and mobile phase B containing 90% acetonitrile and 10 mM NH4HCO3 in LC-MS grade H2O (both pH 8.0). The 96 resulting fractions were then pooled in a non-continuous manner into 24 fractions and these fractions were used for subsequent mass spectrometry analysis.
Data were collected using an Orbitrap Fusion™ Lumos™ mass spectrometer (Thermo Fisher Scientific, San Jose, Calif., USA) coupled with a Proxeon EASY-nLC™ 1200 LC pump (Thermo Fisher Scientific). Peptides were separated on an EasySpray™ ES803 75 μm inner diameter microcapillary column (ThermoFisher Scientific).
Each analysis used an MS3-based TMT method as described in McAlister et al., Anal. Chem. 86(14):7150-7158 (2014). The data were acquired using a mass range of m/z 340-1350, resolution 120,000, automatic gain control (AGC) target 1×10^6, maximum injection time 100 ms, dynamic exclusion of 120 seconds for the peptide measurements in the Orbitrap Fusion™ Lumos™ mass spectrometer. Data dependent MS2 spectra were acquired in the ion trap with a normalized collision energy (NCE) set at 55%, AGC target set to 1.5×10^5 and a maximum injection time of 150 ms. […]

[2] = target: T1, full length human HDAC8-EGFP (Homo sapiens, UniProt Q9BY41); test: HDAC8 reporter assay (HDAC8-EGFP with mCherry reporter); assay type: cell-based; details: 5 hour treatment, FIG. 6; hook effect at higher concentrations
T1 construct: Cells stably expressing the full length human HDAC8-EGFP with mCherry reporter; expressed in transfected cells; Cilantro2 vector (Addgene, 74450)
T1 sequence (Q9BY41 1-377): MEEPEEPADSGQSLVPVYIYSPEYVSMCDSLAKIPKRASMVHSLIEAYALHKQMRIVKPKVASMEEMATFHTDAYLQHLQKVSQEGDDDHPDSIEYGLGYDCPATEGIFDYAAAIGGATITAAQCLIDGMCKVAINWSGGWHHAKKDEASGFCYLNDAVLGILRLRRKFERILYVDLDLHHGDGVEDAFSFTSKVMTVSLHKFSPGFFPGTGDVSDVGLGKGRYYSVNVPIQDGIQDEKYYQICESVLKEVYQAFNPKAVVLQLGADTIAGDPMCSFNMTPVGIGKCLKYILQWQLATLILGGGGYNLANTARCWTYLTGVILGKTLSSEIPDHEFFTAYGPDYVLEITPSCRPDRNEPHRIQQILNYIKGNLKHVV
Protocol: Cells stably expressing the full length human HDAC8-EGFP with mCherry reporter in Cilantro2 vector (Addgene, 74450) were seeded at 30-50% confluency in 384-well plates with 50 μL FluoroBrite™ DMEM media (Thermo Fisher Scientific, A18967) containing 10% FBS per well a day before compound treatment. Compounds were dispensed using a D300e Digital Dispenser (HP), normalized to 0.5% DMSO, and incubated with cells for 5 hours. The assay plate was imaged immediately using an Acumen® High Content Imager (TTP Labtech) with 488 nm and 561 nm lasers in […] per well format. The resulting images were analyzed using CellProfiler™.
A series of image analysis steps (‘image analysis pipeline’) was constructed. First, the red and green channels were aligned and cropped to target the middle of each well (to avoid analysis of heavily clumped cells at the edges), and a background illumination function was calculated for both red and green channels of each well individually and subtracted to correct for illumination variations across the 384-well plate from various sources of error. An additional step was then applied to the green channel to suppress the analysis of large auto fluorescent artifacts and enhance the analysis of cell specific fluorescence by way of selecting for objects under a given size, 30 A.U., and with a given shape, speckles. mCherry-positive cells were then identified in the red channel filtering for objects between 8-60 pixels in diameter and using intensity to distinguish between clumped objects. The green channel was then segmented into GFP positive and negative areas and objects were labeled as GFP positive if at least 40% of it overlapped with a GFP positive area. The fraction of GFP-positive cells/mCherry-positive cells in each well was then calculated, and the green and red images were rescaled for visualization. The values for the concentrations that lead to a 50% degradation (DC50) were calculated using the nonlinear fit variable slope model in GraphPad Prism software.

Structure (SMILES)	change of cellular HDAC6/8 protein levels (heat map FIG. 3) [1]	reduction in HDAC6/8 protein levels compared to DMSO treated cells [1]	degradation of GFP tagged HDAC8 in the reporter cell lines [2]
O=C(/C=C/c1ccc(CN(CCOCCOCCNc2cccc3c2C(=O)N(C2CCC(=O)NC2=O)C3=O)CCc2c[nH]c3ccccc23)cc1)NO (stereo not drawn) [Compound 1, (E)-3-(4-(((2-(1H-indol-3-yl)ethyl)(2-(2-(2-((2-(2,6-dioxopiperidin-3-yl)-1,3-dioxoisoindolin-4-yl)amino)ethoxy)ethoxy)ethyl)amino)methyl)phenyl)-N-hydroxyacrylamide]	induced down-regulation	significant reduction	degradation of GFP tagged HDAC8
O=C(/C=C/c1ccc(CN(CCOCCNc2cccc3c2C(=O)N(C2CCC(=O)NC2=O)C3=O)CCc2c[nH]c3ccccc23)cc1)NO (stereo not drawn) [Compound 2, (E)-3-(4-(((2-(1H-indol-3-yl)ethyl)(2-(2-((2-(2,6-dioxopiperidin-3-yl)-1,3-dioxoisoindolin-4-yl)amino)ethoxy)ethyl)amino)methyl)phenyl)-N-hydroxyacrylamide]	induced down-regulation	significant reduction	degradation of GFP tagged HDAC8
O=C(/C=C/c1ccc(CN(CCCCCNc2cccc3c2C(=O)N(C2CCC(=O)NC2=O)C3=O)CCc2c[nH]c3ccccc23)cc1)NO (stereo not drawn) [Compound 3, (E)-3-(4-(((2-(1H-indol-3-yl)ethyl)(5-((2-(2,6-dioxopiperidin-3-yl)-1,3-dioxoisoindolin-4-yl)amino)pentyl)amino)methyl)phenyl)-N-hydroxyacrylamide]	induced down-regulation	significant reduction	degradation of GFP tagged HDAC8
